Measured values from US5466716A, “Liposomal trimethylsphingosine” (The Biomembrane Institute, priority 1994, dated 1995).
Entries after “also recorded” stand apart in the source; their conditions may differ. Read-outs that look alike come from different tables or passages of the source.

Columns and labels:
Type in all cases: cell-based, human
[1] = tested on: 47 kDa and 65 kDa proteins; experiment: PMA-induced phosphorylation of 47 kDa and 65 kDa neutrophil proteins; conditions: for phosphorylation of 47 kDa and 65 kDa proteins / time in which inhibitory effect on phosphorylation is observed: 15-45 μM; for phosphorylation of 47 kDa and 65 kDa proteins: PMA 1.5 μM; for time in which inhibitory effect on phosphorylation is observed: incubation
Description: Excess unbound components were removed by centrifugation and the pellets were resuspended in the same buffer, repeating twice. The cells then were divided into 7 treatment groups, each containing ≈1×10^7 cells in a total volume of 0.4 ml. […] Two minutes later, the reaction was terminated by adding 0.1 ml of Laemmli's sample buffer and 20 mM EDTA, followed by heating at 100° C. for 5 min. Aliquots were separated through 10% sodium dodecyl sulfate gels using known procedures. ^32 P incorporation was visualized by autoradiography.

neutrophils = experiment: phagokinetic activity of neutrophils on gold sol-coated plates; conditions: for activity at 4.5 µM / activity at 12 µM: Homo sapiens, Neutrophil; for activity at 4.5 µM: 2 h, read-out: Area Swept; for activity at 12 µM: read-out: Area Swept (recovery of phagokinetic activity)
Description: The phagokinetic activity of neutrophils on gold sol-coated plates can be determined by a technique essentially as taught in Albrecht-Buehler (Cell, 11, 395, 1977). […] Thus, the inhibitory effect of TMS on phagokinetic activity is not dependent on cytotoxicity.
.sctn. The area swept by neutrophils was determined in photographs of the
monolayers. The regions cleared by neutrophil movement were then cut out
Phagokinetic activity was observed by tracing tracks of neutrophils moving on a glass substrate covered with gold colloid particles. The technique was described originally by Albrecht-Buehler, supra, using 3T3 and other cell lines. Briefly, 22×22 mm square glass coverslips (Corning Glass Works, Corning, N.Y.) were dipped for 1 min into 1% BSA prepared in Milli Q water. The BSA solution was prepared fresh each day and passed through 0.20 μm Nalgene filters (Nalgene Labware Division, Rochester, N.Y.).
The coverslip then was drained by touching a Kim-wipe paper towel to its edge, dipped into 100% ethanol and rapidly and completely dried in a 85° C. hot airstream. The coverslip was placed in a 3.5 cm Falcon plastic dish. Then 5.4 ml of AuCl4 H and 18 ml of 36.5 mM Na2 CO3 were added to 33 ml of distilled water and heated. Immediately after reaching the boiling point, 5.4 ml of 0.1% formaldehyde in water were added quickly and mixed. The suspension of gold particles forming a brownish color was distributed immediately onto the dish (2 ml each) and the coverslip was incubated for 2 hr at 37° C.
Particle-coated coverslips were washed in PBS, then twice in RPMI 1640 and finally put in another 3.5 cm Falcon plastic dish containing 2 ml of RPMI 1640 with glutamate and pyruvate. The coverslips were stored at 4° C. and used within 24 hr after preparation.
The freshly-purified neutrophils (1×10^4 cells/plate) were added onto the colloid-coated coverslip. TMS and other effectors were added into the medium on the plate. As a control, the solvent of the effectors (50% ethanol) was added at an equal amount. At that concentration (0.1%), ethanol brought no significant effect on neutrophil activities. To observe cell recovery from exposure to the effectors, neutrophils (2×10^5 cells/ml) were pre-incubated at 37° C. with 12 μM of TMS, SPN and DMS, then distributed to the dish dropwise, diluting the effectors 200-fold. Incubation was conducted under 5% CO2 at 37° C. for 2 hr and terminated by adding 200 μl of 10% formaldehyde. Microscopic examination of each plate was performed with a Nikon microscope, connected to a Polaroid camera for recordings. Phagokinetic activity was measured by tracing the track of a neutrophil. The track was recorded with photographs, then the area was measured by cutting and weighing there swept area.

[2] = tested on: phosphoinositide turnover; experiment: fMLP-induced phosphoinositide turnover in neutrophils (32P incorporation); conditions: for activity at 5 µM: Homo sapiens, Neutrophil, Table VI, 5 μM effector plus fMLP, control 100, read-out: PIP labeling
Description: Amount of ^32 P in PIP and PIP2 was measured using TLC separation. The spots on TLC plates were scraped off and the radioactivity therein was measured with a Beckman scintillation counter. Each spot was compared as to intensity with the identical spot of the control sample.
After incubation, the cells were washed and resuspended in the same buffer at a concentration of 1×10^7 cells/ml. Each suspension (1 ml) then was pretreated with TMS, SPN or DMS, or equal volume of 50% ethanol, for 10 min at 37° C. Then keeping the same temperature, fMLP was added to a final concentration of 1.0 μM. Two minutes later, the reaction was terminated by adding 3.75 ml of chloroform/methanol (1:2) to each cell suspension, followed by sonication for 15 min. An additional 1.25 ml of chloroform, 1.25 ml of water and 50 μl of acetone were added and the total mixture was mixed and left overnight.
Following centrifugation of the mixture, the phospholipids were extracted by Folch's partition method, taking the lower phase from the cell lysate. […] The TLC plate was developed with control phospholipids, in a solvent comprising chloroform/methanol/4M NaOH at a ratio of 45:35:10 and containing 0.1% CDTA (trans-1,2-diaminocyclohexane-N,N,N',N'-tetraacetic acid) for 65 min at 37° C. The bands were identified by staining the control phospholipids with primuline and visualization under ultraviolet light. Autoradiography was performed with Kodak diagnostic film GBX-2 (Rochester N.Y.) by exposing overnight at 37° C.

GMP-140 = GMP-140 expression on platelets (flow cytometry, mAb AC1.2)
Description: FIGS. 11A and 11B depict results of representative experiments assessing the percentage of platelets capable of binding an anti-GMP-140 antibody following exposure to various agents. The percentage binding activity was determined in a flow cytometer. SPN is sphingosine; H-7 is 1-(5-isoquinolinylsulfonyl)-2-methylpiperazine; Cal is calphostin-C; TMS is trimethylsphingosine; and DMS is dimethylsphingosine.
GMP-140 expression was determined by (i) flow cytometry with mAb AC1.2, which is directed to GMP-140 and obtained from Dr. Furie (Tufts Univ. Sch. Med., Boston, Mass.) and (ii) adhesion of HL60 cells on platelet-coated solid phase.
A suspension of platelets (1×10^8 /ml) in Tyrode's buffer was preincubated with inhibitor at pH 7.2, 37° C., for 5 minutes, then supplemented with activator, either thrombin (final concentration 1 U/ml) or phorbol 12-myristate 13-acetate (PMA (final concentration 10^-7 M), and the mixture was incubated at 37° C. for 10 minutes. Platelets were fixed with an equal volume of 2% (w/v) paraformaldehyde in PBS and washed 2 times with PBS containing 1% (w/v) BSA.
The paraformaldehyde-fixed platelets were incubated with 50 μl of mAb AC1.2 (2.5 μg/ml) at room temperature for 30 minutes. Platelets were washed 2 times with PBS containing 1% (w/v) BSA, supplemented with 50 μl of fluorescein isothiocyanate-labeled goat anti-mouse Ig (purchased from Tago Co., Burlingame, Calif.), incubated at room temperature for 30 minutes and again washed 2 times with PBS containing 1% (w/v) BSA. As a negative control, paraformaldehyde-fixed platelets were incubated with mouse IgG instead of mAb AC1.2 and treated as described above.
The platelets were analyzed in an Epics flow cytometer (Coulter Corp.) with suitable gating. To calculate the inhibitory effect of various reagents, the mean fluorescence intensity of resting platelets (obtained on incubation of platelets without activator) was subtracted from the value for the activated platelet sample.

[3] = Table IV, 12 μM preincubation then 200-fold dilution, control 100

Compound | phosphorylation of 47 kDa and 65 kDa proteins [1] | time in which inhibitory effect on phosphorylation is observed [1] | activity at 4.5 µM (neutrophils; Table I, 4.5 μM, control 100) | activity at 12 µM (neutrophils; [3]) | activity at 5 µM [2] | inhibition of GMP-140 expression (GMP-140; PMA-induced, 10-20 μM) | inhibition of GMP-140 expression (GMP-140; thrombin-induced, FIG. 11A) | activity at 4.5 µM (neutrophils) | activity at 12 µM (neutrophils) | inhibition of GMP-140 expression (GMP-140; PMA-induced, FIG. 11B) | phosphorylation of specific proteins related to protein kinase C ([1]; Example 7) | suppression of phagokinetic activity (neutrophils; 1.5 μM) | suppression of phagokinetic activity (neutrophils; 4.5 μM) | neutrophil migration (phagokinetic) (neutrophils; Example 9) | reversal of inhibitory effect on phagokinetic activity (neutrophils; medium replaced with TMS-free medium) | suppression of fMLP-dependent enhancement of 32P incorporation into PI, PIP and PIP2 ([2]; 5 μM, fMLP 1 μM) | fMLP induced phosphorylation of phosphotidyl inositols ([2]; Example 8) | GMP-140 expression (GMP-140; platelets preincubated with TMS) | inhibition of GMP-140 expression (GMP-140; thrombin-induced, 10-20 μM) | Area Swept (neutrophils; Table I, 0.5 μM, control 100, 120 min)
CCCCCCCCCCCCC/C=C/[C@@H](O)[C@H](CO)N(C)C [DMS, (4E)-N,N-dimethyl-D-erythro-sphingosine] | diminished significantly | ≤ 2 min | 26 ± 25% | 32 ± 19% | 146 ± 27% | strongly inhibited GMP-140 expression | strongly inhibited thrombin-induced GMP-140 expression | – | – | – | – | – | – | – | – | – | – | – | – | –
CCCCCCCCCCCCC/C=C/[C@@H](O)[C@@H](N)CO [SPN, sphingosine] | diminished significantly | ≤ 2 min | – | – | 174 ± 37% | – | no inhibition | 14 ± 7% | 42 ± 24% | Neither SPN nor H-7 showed inhibition | – | – | – | – | – | – | – | – | – | –
CCCCCCCCCCCCC/C=C/[C@@H](O)[C@H](CO)[N+](C)(C)C [TMS, N,N,N-trimethylsphingosine] | diminished significantly | ≤ 2 min | 16 ± 18% | 92 ± 34% | 127 ± 19% | strongly inhibited GMP-140 expression | – | – | – | – | had an affect on phosphorylation of specific proteins | suppressed significantly | completely suppressed | inhibited neutrophil migration | reversed completely | suppressed strongly | suppressed | inhibits GMP-140 expression; also recorded: down-regulated or blocked | strongly inhibited GMP-140 expression | –
Calphostin C | – | – | – | – | – | – | – | – | – | – | – | – | – | – | – | – | – | – | weak inhibition | 39 ± 11%
